From PMC12254416, “The antimethanogenic efficacy and fate of bromoform and its transformation products in rumen fluid” (Scientific Reports, 2025)
Entries after “also recorded” stand apart in the source; their conditions may differ.

What was measured:
[1] = Compound tracing incubation in live rumen fluid (biotic plus inhibitor, B+); assay type: in vitro ADME, Holstein cattle; details: for Rate constant, biological loss: difference between total loss (B+) and abiotic loss (AC+); for ½ life, biological loss: from difference of B+ and AC+ rates; for ½ life, loss (total, biotic incubation) / Rate constant, loss (total, biotic incubation): live rumen fluid B+, 40 °C; for Rate constant, loss (total, biotic incubation): compound added alone
Source text: (§1) Animals used in this study were cared for according to the guidelines of William H. Miner Agricultural Research Institute (Chazy, NY) Animal Care and Use Committee. Rumen fluid was collected by cannulation from four healthy, lactating Holstein cattle maintained on the same diet for five weeks with approval from the William H. Miner Agricultural Research Institute (Chazy, NY) Animal Care and Use Committee and in compliance with SOP#106.
(§2) Donor cow profiles and dietary information can be found in supplemental information (Table S1 and Table S2). Rumen samples were strained through four layers of cheesecloth, placed on ice and shipped overnight to Bigelow Laboratory for Ocean Sciences at weekly intervals for three consecutive weeks. Upon arrival, the four samples were combined under anaerobic conditions. Sub-samples of the rumen fluid blend were flash-frozen in liquid nitrogen and stored at −20 °C for later analysis of initial pH, ammonia (NH3), and volatile fatty acids (VFAs). The rumen fluid blend was kept air-tight, on ice at 4 °C until used for experimental incubations within four days[34],[35].
(§3) This study utilized an in vitro technique of directly incubating rumen fluid for short-term experiments (< 6 h). The in vitro experiments were performed in accordance with guidelines reviewed in Yáñez-Ruiz et al.[36]. In order to investigate the response to and transformation of methanogenesis inhibitors, experiments included combinations of the following treatment groups: (i) biotic control (BC): live rumen fluid containing no inhibitors, (ii) biotic plus inhibitor (B+): live rumen fluid containing an inhibitor, (iii) abiotic control plus inhibitor (AC+): rumen fluid sterilized by autoclave (121 °C, 15 psi for 1 h) and containing an inhibitor. Prior to the incubation experiments, 80 ml aliquots of blended rumen fluid were added to 120 ml glass serum bottles and sealed with PTFE septa under anaerobic conditions (80% nitrogen, 15% carbon dioxide, 5% hydrogen). Experiments consisted of a series of 15 to 18 bottles of the same batch of refrigerated rumen fluid incubated in parallel. To revive the microbial activity at the start of each experiment, the incubation bottles, including the killed controls, were brought to 40 °C in a recirculating water bath within 15 min. The bottles thermally equilibrated for another 30 min before the experiment was initiated. The experiment was initiated after headspace sampling (T0) and the designated treatment was added. The incubation proceeded for ~ 4–6 h at 40 °C.
(§4) Two experimental designs were run: i) compound tracing experiments, to investigate the lifetime and transformation of inhibitors; and ii) dose-response experiments, to determine the sensitivity of methanogenesis to inhibitors (Fig. 1). Dose-response experiments included biotic controls (BC), and a series of nine biotic plus inhibitor treatments (B+) across a range of concentrations (0 to 25 µM) containing the specific inhibitor (bromoform (Sigma-Aldrich 99%), dibromomethane (Sigma-Aldrich 99%), bromomethane (Supelco TraceCERT®), or Asparagopsis taxiformis. The A. taxiformis was collected fresh from a marine site in the subtropical Atlantic (27° 59’ 19”, −15° 22’ 12”) and stored frozen at −20 °C. The sample material contained 0.33 ± 0.02 mg bromoform g^−1 dry weight.
(§5) Tracing experiment treatments included biotic controls (BC), biotic plus inhibitors (B+), and abiotic plus inhibitors (AC+) of a single concentration of the target compound, each in triplicate. Target compounds bromoform, dibromomethane, and bromomethane, were injected through the septa as solutions in methanol (VWR 99.9%). The corresponding levels of methanol, which ranged from 30 to 950 µl, were added to the control treatments, depending on the desired inhibitor concentration. The A. taxiformis was cut into fine pieces, homogenized, pre-weighed into PTFE capsules and placed in the incubation bottles prior to incubation. […]

[2] = Compound tracing incubation in autoclaved rumen fluid (abiotic control plus inhibitor, AC+); assay type: in vitro ADME, Holstein cattle
Source text: as §1, §2, §3, §4, §5

[3] = system: CH4 production in rumen fluid; experiment: CH4 production in in vitro rumen fluid incubations (dose-response and single-dose inhibition); assay type: cell-based, Holstein cattle; details: for Concentration range of the dose response: CH4 production vs inhibitor concentration, for bromomethane the extent of the range; for Concentration at which the sigmoidal concentration-inhibition relationship occurred: abstract; for Time after addition to reduced CH4 production: bromoform addition, vs control; for CH4 production relative to the no treatment control: concentrations > 2 µmol l^−1; for maximum value of CH4 production (dose-response fit) / minimum value of CH4 production (dose-response fit): cumulative CH4 over 240 min, 80 ml rumen fluid; for maximum value of CH4 production (dose-response fit) / minimum value of CH4 production (dose-response fit) / EC50 / coefficient b of log-logistic dose-response curve: ± standard error; for EC50: cumulative CH4 over 240 min vs initial concentration, read-out: ec-50, 50 % inhibition of CH4 production; for coefficient b of log-logistic dose-response curve: cumulative CH4 production over 240 min vs initial inhibitor concentration
Source text: as §1, §2, §3, §4, §5

[4] = Loss to headspace volume estimated from Henry's Law solubility constants; assay type: physicochemical; details: based on Henry's Law solubility constants, during the incubations
Experimental: Based on the Henry’s Law solubility constants for bromoform and dibromomethane, loss to the headspace volume during the incubations would have amounted to < 5% of the dissolved pool of either compound and therefore, had minimal influence on estimated loss and turnover rates. In contrast, approximately 40% of any bromomethane produced during the tracing experiments may have been lost to the headspace gas sampling and may have contributed to the lack of evidence of bromomethane production.

[5] = design: method as in earlier work; details: incubation times up to 72 h; ref 33 Romero et al.; cited from earlier work
[6] = bromoform-amended live rumen fluid (Exp1)
[7] = bromoform-amended autoclaved rumen fluid (Exp1)

In the case of `BrC(Br)Br` [bromoform], the “Loss rate in live rumen fluid relative to autoclaved control” value ([1]; B+ vs AC+) is reported as “more than 3 fold”, the “Rate constant, biological loss” value [1] is reported as -19.6 ± 1.2 x 10^-3min^-1 and the “½ life, biological loss” value [1] is reported as 35 min. The “½ life, loss (total, biotic incubation)” value [1] was ~ 26 min, the “Rate constant, loss (total, biotic incubation)” value [1] was -26.4 ± 1.3 x 10^-3min^-1 and the “½ life, loss (total, biotic incubation)” value ([1]; listed as Bromoform) was 26 min. For the same compound, the “½ life, abiotic loss” value ([2]; autoclaved rumen fluid AC+) was 102 min, the “Rate constant, abiotic loss” value ([2]; autoclaved rumen fluid AC+, 40 °C) was -6.8 ± 0.3 x 10^-3min^-1 and the “Inhibition threshold for CH4 production” value [3] was ~ 1 µmol l^−1. For the same compound, the “Concentration range of the dose response” value [3] was 1 to 2 µmol/L, the “Concentration at which the sigmoidal concentration-inhibition relationship occurred” value [3] was 1 to 2 µM and the “CH4 inhibition vs biotic control” value ([3]; bromoform 3 µmol l^−1, after 260 min (Exp 4)) was 78%. The “Time after addition to reduced CH4 production” value [3] was less than 60 min, the “Time after addition to reduced CH4 production” value ([3]; listed as CHBr3) was no more than 60 min and the “CH4 production relative to the no treatment control” value [3] was less than 20%. For the same compound, the “maximum value of CH4 production (dose-response fit)” value (shortened to “maximum value of CH4 production”) [3] was 681 ± 14 µmol, the “minimum value of CH4 production (dose-response fit)” value (“minimum value of CH4 production” for short) [3] was 98 ± 16 µmol and the EC50 [3] was 1370 ± 30 nM. For the same compound, the “coefficient b of log-logistic dose-response curve” value [3] was 5.98 ± 0.76, the “Inhibition of CH4 production” value ([3]; total bromoform addition of 3 µmol l^−1, ~300 min (Exp 3)) was greater than 75% and the “Loss to the headspace volume, share of the dissolved pool / of compound produced” value [4] was less than 5%.

With `CBr` [bromomethane] the “Production of bromomethane in incubations” value ([1]; tracing incubations, limit of detection 8 nmol l^−1) was “no bromomethane was detected; also recorded: not detected; also recorded: no detectable bromomethane production”, the “Concentration required to achieve a maximal inhibitory effect” value ([3]; CH4 production dose response (Exp7)) was greater than 20 µmol/L and the “maximum value of CH4 production” value [3] was 616 ± 6 µmol. For the same compound, the “minimum value of CH4 production” value [3] was 182 ± 7 µmol, the EC50 [3] was 5340 ± 140 nM and the “coefficient b of log-logistic dose-response curve” value [3] was 3.09 ± 0.24. The “EC50 relative to bromoform and dibromomethane” value ([3]; higher) was roughly 5 fold and the “Loss to the headspace volume, share of the dissolved pool / of compound produced” value [4] was “approximately 40%”.

In the case of `BrCBr` [dibromomethane], the “Peak dibromomethane as % of the highest observed bromoform, biotic” value ([1]; B + A.tax (Exp 4)) is reported as 22.0%, the “Peak level of dibromomethane after A. taxiformis addition, biotic” value ([1]; B + A.tax (Exp 4)) is reported as 0.076 ± 0.006 µmol/L and the Dibromomethane production rate [1, 6] is reported as 0.0353 ± 0.0024 µmol/L/min. For the same compound, the “Yield of dibromomethane, % of the initial bromoform added” value [1, 6] was 22.1%, the “Biotic loss slower than the loss of bromoform” value ([1]; dibromomethane vs bromoform, biotic) was roughly 30 fold and the “Rate constant, biological loss” value [1] was -0.826 ± 0.113 x 10^-3min^-1. For the same compound, the “½ life, biological loss” value [1] was 839 min, the “½ life, loss (total, biotic incubation)” value [1] was 775 min and the “Rate constant, loss (total, biotic incubation)” value [1] was -0.894 ± 0.091 x 10^-3min^-1. The “Dibromomethane as % of the maximum bromoform concentrations, abiotic” value ([2]; AC + A.tax (Exp 4)) was 1.3%, the “Dibromomethane at the end of the incubation after A. taxiformis addition, abiotic” value ([2]; AC + A.tax (Exp 4)) was 0.030 ± 0.001 µmol/L and the “½ life, abiotic loss” value ([2]; autoclaved rumen fluid AC+) was 10200 min. For the same compound, the “Dibromomethane abiotic production rate” value [2, 7] was 0.0014 ± 0.0001 µmol/L/min, the “Yield of dibromomethane, % of the initial bromoform added, abiotic” value [2, 7] was 3.4% and the “Yield of dibromomethane, % of the initial bromoform added, abiotic” value ([2]; bromoform-amended autoclaved rumen fluid (Exp1), listed as Dibromomethane) was 3.4%. For the same compound, the “Concentration range of the dose response” value [3] was 1 to 2 µmol/L, the “Concentration at which the sigmoidal concentration-inhibition relationship occurred” value [3] was 1 to 2 µM and the “CH4 production relative to the no treatment control” value [3] was less than 20%. For the same compound, the “maximum value of CH4 production” value [3] was 763 ± 16 µmol, the “minimum value of CH4 production” value [3] was 146 ± 8 µmol and the EC50 [3] was 1360 ± 30 nM. The “coefficient b of log-logistic dose-response curve” value [3] was 7.46 ± 0.92, the “Loss to the headspace volume, share of the dissolved pool / of compound produced” value [4] was less than 5% and the “Dibromomethane produced as proportion of the degraded bromoform” value [5] was 20 to 40%.
